Key:
Wee-1 kinase = target: T1, Wee-1 kinase (Homo sapiens, UniProt P30291); assay: Inhibitory activity against Wee-1 kinase (Lanthra Screen Wee-1 kinase kit, Tracer 178); assay type: binding; details: Wee-1 kinase 5 nM, Tracer 178 50 nM, 1 h room temperature
T1 construct: purchased Invitrogen
Method: Example 342. Assay for Inhibitory Activity of Compounds Against Wee-1 Kinase
The inhibitory activity of compounds against Wee-1 kinase was determined by using the Lanthra Screen Wee-1 kinase kit (Invitrogen). 5 μL of the compound diluted in a gradient with DMSO, 5 μL. of Wee-1 kinase (at a final concentration of 5 nM), 5 μL of an Eu-Anti-GST antibody (at a final concentration of 2 nM) mixture and 5 μL of kinase Tracer 178 (at a final concentration of 50 nM) were mixed well. The plate was read after incubation at room temperature for one hour. For comparison with the DMSO solvent control group, IC50 for the inhibition activity of the compounds against Wee-1 kinase was calculated.

HT29 cells = assay: Antiproliferative activity against HT29 cells (Cell Titer-Lumi, ATP content); assay type: cell-based; details: Homo sapiens, HT-29, 72 after compound addition, read-out: HT-29 cells Anti-proliferative activity (IC50 for the inhibition against HT-29 cell growth)
Method: Example 343. Assay for Antiproliferative Activity Against HT29 Cells
3000 HT29 cells were seed in a 384-well plate (Fisher 142762). After the cells adhered to the wall overnight, the compounds diluted in a gradient were added. 72 later, Cell Titer-Lumi (Beyotime C0068XL) was added to determine the content of ATP in the cells. The growth of the cells was evaluated, and the IC50 for the inhibition of the compounds against cell growth was calculated.

T1 sequence (P30291 whole entry): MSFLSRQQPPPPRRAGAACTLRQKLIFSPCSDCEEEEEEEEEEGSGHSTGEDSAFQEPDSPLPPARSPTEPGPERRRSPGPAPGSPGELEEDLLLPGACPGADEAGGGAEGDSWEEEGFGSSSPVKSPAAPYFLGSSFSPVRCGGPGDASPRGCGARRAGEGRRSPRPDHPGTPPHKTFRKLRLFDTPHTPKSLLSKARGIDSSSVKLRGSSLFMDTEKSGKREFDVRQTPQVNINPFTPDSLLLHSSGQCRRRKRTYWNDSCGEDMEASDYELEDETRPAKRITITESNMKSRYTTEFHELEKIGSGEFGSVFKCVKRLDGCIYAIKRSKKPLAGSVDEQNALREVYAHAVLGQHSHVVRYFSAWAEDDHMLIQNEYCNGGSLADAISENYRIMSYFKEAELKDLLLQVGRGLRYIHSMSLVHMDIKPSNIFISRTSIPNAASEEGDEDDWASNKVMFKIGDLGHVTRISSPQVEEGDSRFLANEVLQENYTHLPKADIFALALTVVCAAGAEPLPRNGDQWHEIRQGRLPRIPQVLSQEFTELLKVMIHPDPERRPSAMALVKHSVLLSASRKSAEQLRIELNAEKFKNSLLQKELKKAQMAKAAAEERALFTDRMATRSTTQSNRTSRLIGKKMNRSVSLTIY

Row | SMILES | IC50 (Wee-1 kinase) | IC50 (HT29 cells)
1 | C=CCn1c(=O)c2cnc(Nc3cc(C)c(N4CCNCC4)c(F)c3)nc2n1-c1ccc(=O)n(C(C)C)n1 [Compound 55] | ≤ 30 nM | ≤ 1000 nM
2 | C=CCn1c(=O)c2cnc(Nc3cc(C)c(N4CCN(C)CC4)c(F)c3)nc2n1-c1ccc(=O)n(C(C)C)n1 [Compound 56] | ≤ 30 nM | ≤ 1000 nM
3 | C=CCn1c(=O)c2cnc(Nc3cc(C)c(N4CCNCC4)c(Cl)c3)nc2n1-c1ccc(=O)n(C(C)C)n1 [Compound 57] | ≤ 30 nM | ≤ 1000 nM
4 | C=CCn1c(=O)c2cnc(Nc3cc(C)c(N4CCN(C)CC4)c(Cl)c3)nc2n1-c1ccc(=O)n(C(C)C)n1 [Compound 58] | ≤ 30 nM | ≤ 1000 nM
5 | C=CCn1c(=O)c2cnc(Nc3cc(F)c(N4CCNCC4)c(Cl)c3)nc2n1-c1ccc(=O)n(C(C)C)n1 [Compound 59] | ≤ 30 nM | ≤ 1000 nM
6 | C=CCn1c(=O)c2cnc(Nc3cc(F)c(N4CCN(C)CC4)c(Cl)c3)nc2n1-c1ccc(=O)n(C(C)C)n1 [Compound 60] | ≤ 30 nM | ≤ 1000 nM
7 | C=CCn1c(=O)c2cnc(Nc3cc(Cl)c(N4CCNCC4)c(Cl)c3)nc2n1-c1ccc(=O)n(C(C)C)n1 [Compound 61] | ≤ 30 nM | ≤ 1000 nM
8 | C=CCn1c(=O)c2cnc(Nc3cc(Cl)c(N4CCN(C)CC4)c(Cl)c3)nc2n1-c1ccc(=O)n(C(C)C)n1 [Compound 62] | ≤ 30 nM | ≤ 1000 nM
9 | C=CCn1c(=O)c2cnc(Nc3cc(F)c(N4CCNCC4)c(OC)c3)nc2n1-c1ccc(=O)n(C(C)C)n1 [Compound 63] | ≤ 30 nM | ≤ 1000 nM
10 | C=CCn1c(=O)c2cnc(Nc3cc(F)c(N4CCN(C)CC4)c(OC)c3)nc2n1-c1ccc(=O)n(C(C)C)n1 [Compound 64] | ≤ 30 nM | ≤ 1000 nM
11 | C=CCn1c(=O)c2cnc(Nc3cc(Cl)c(N4CCNCC4)c(OC)c3)nc2n1-c1ccc(=O)n(C(C)C)n1 [Compound 65] | ≤ 30 nM | ≤ 1000 nM
12 | C=CCn1c(=O)c2cnc(Nc3cc(Cl)c(N4CCN(C)CC4)c(OC)c3)nc2n1-c1ccc(=O)n(C(C)C)n1 [Compound 66] | ≤ 30 nM | ≤ 1000 nM
13 | C=CCn1c(=O)c2cnc(Nc3cccc(N4CCNCC4)c3)nc2n1-c1ccc(=O)n(C(C)C)n1 [Compound 67] | ≤ 30 nM | ≤ 1000 nM
14 | C=CCn1c(=O)c2cnc(Nc3cccc(N4CCN(C)CC4)c3)nc2n1-c1ccc(=O)n(C(C)C)n1 [Compound 68] | ≤ 30 nM | ≤ 1000 nM
15 | C=CCn1c(=O)c2cnc(Nc3cc(C)cc(N4CCNCC4)c3)nc2n1-c1ccc(=O)n(C(C)C)n1 [Compound 69] | ≤ 30 nM | ≤ 1000 nM
16 | C=CCn1c(=O)c2cnc(Nc3cc(C)cc(N4CCN(C)CC4)c3)nc2n1-c1ccc(=O)n(C(C)C)n1 [Compound 70] | ≤ 30 nM | ≤ 1000 nM
17 | C=CCn1c(=O)c2cnc(Nc3cc(F)cc(N4CCNCC4)c3)nc2n1-c1ccc(=O)n(C(C)C)n1 [Compound 71] | ≤ 30 nM | ≤ 1000 nM
18 | C=CCn1c(=O)c2cnc(Nc3cc(F)cc(N4CCN(C)CC4)c3)nc2n1-c1ccc(=O)n(C(C)C)n1 [Compound 72] | ≤ 30 nM | ≤ 1000 nM
19 | C=CCn1c(=O)c2cnc(Nc3cc(Cl)cc(N4CCNCC4)c3)nc2n1-c1ccc(=O)n(C(C)C)n1 [Compound 73] | ≤ 30 nM | ≤ 1000 nM
20 | C=CCn1c(=O)c2cnc(Nc3cc(Cl)cc(N4CCN(C)CC4)c3)nc2n1-c1ccc(=O)n(C(C)C)n1 [Compound 74] | ≤ 30 nM | ≤ 1000 nM
21 | C=CCn1c(=O)c2cnc(Nc3cc(OC)cc(N4CCNCC4)c3)nc2n1-c1ccc(=O)n(C(C)C)n1 [Compound 76] | ≤ 30 nM | ≤ 1000 nM
22 | C=CCn1c(=O)c2cnc(Nc3ccc(N4CC(N(C)C)C4)cc3)nc2n1-c1ccc(=O)n(C(C)C)n1 [Compound 77] | ≤ 30 nM | ≤ 1000 nM
23 | C=CCn1c(=O)c2cnc(Nc3ccc(N4CC(N(C)C)C4)c(C)c3)nc2n1-c1ccc(=O)n(C(C)C)n1 [Compound 78] | ≤ 30 nM | ≤ 1000 nM
24 | C=CCn1c(=O)c2cnc(Nc3ccc(N4CC(N(C)C)C4)c(OC)c3)nc2n1-c1ccc(=O)n(C(C)C)n1 [Compound 79] | ≤ 30 nM | ≤ 1000 nM
25 | C=CCn1c(=O)c2cnc(Nc3ccc(N4CC(N5CCC5)C4)cc3)nc2n1-c1ccc(=O)n(C(C)C)n1 [Compound 80] | ≤ 30 nM | 1000 to 3000 nM
26 | C=CCn1c(=O)c2cnc(Nc3ccc(N4CC(N5CCC5)C4)c(C)c3)nc2n1-c1ccc(=O)n(C(C)C)n1 [Compound 81] | ≤ 30 nM | ≤ 1000 nM

Row | SMILES | IC50 (Wee-1 kinase) | IC50 (HT29 cells)
27 | C=CCn1c(=O)c2cnc(Nc3ccc(N4CC(N5CCC5)C4)c(OC)c3)nc2n1-c1ccc(=O)n(C(C)C)n1 [Compound 82] | ≤ 30 nM | ≤ 1000 nM
28 | C=CCn1c(=O)c2cnc(Nc3ccc(N4CC(N5CCCC5)C4)cc3)nc2n1-c1ccc(=O)n(C(C)C)n1 [Compound 83] | ≤ 30 nM | ≤ 1000 nM
29 | C=CCn1c(=O)c2cnc(Nc3ccc(N4CC(N5CCCC5)C4)c(C)c3)nc2n1-c1ccc(=O)n(C(C)C)n1 [Compound 84] | ≤ 30 nM | ≤ 1000 nM
30 | C=CCn1c(=O)c2cnc(Nc3ccc(N4CC(N5CCCC5)C4)c(OC)c3)nc2n1-c1ccc(=O)n(C(C)C)n1 [Compound 85] | ≤ 30 nM | ≤ 1000 nM
31 | C=CCn1c(=O)c2cnc(Nc3ccc(N4CCC(N5CCC5)CC4)cc3)nc2n1-c1ccc(=O)n(C(C)C)n1 [Compound 86] | ≤ 30 nM | ≤ 1000 nM
32 | C=CCn1c(=O)c2cnc(Nc3ccc(N4CCC(N5CCC5)CC4)c(C)c3)nc2n1-c1ccc(=O)n(C(C)C)n1 [Compound 87] | ≤ 30 nM | ≤ 1000 nM
33 | C=CCn1c(=O)c2cnc(Nc3ccc(N4CCC(N5CCC5)CC4)c(OC)c3)nc2n1-c1ccc(=O)n(C(C)C)n1 [Compound 88] | ≤ 30 nM | ≤ 1000 nM
34 | C=CCn1c(=O)c2cnc(Nc3ccc(N4CCC(N5CCCC5)CC4)cc3)nc2n1-c1ccc(=O)n(C(C)C)n1 [Compound 89] | ≤ 30 nM | ≤ 1000 nM
35 | C=CCn1c(=O)c2cnc(Nc3ccc(N4CCC(N5CCCC5)CC4)c(C)c3)nc2n1-c1ccc(=O)n(C(C)C)n1 [Compound 90] | ≤ 30 nM | ≤ 1000 nM
36 | C=CCn1c(=O)c2cnc(Nc3ccc(N4CCC(N5CCCC5)CC4)c(OC)c3)nc2n1-c1ccc(=O)n(C(C)C)n1 [Compound 91] | ≤ 30 nM | ≤ 1000 nM
37 | C=CCn1c(=O)c2cnc(Nc3ccc(N4CC[C@H](N(C)C)C4)cc3)nc2n1-c1ccc(=O)n(C(C)C)n1 [Compound 92] | ≤ 30 nM | ≤ 1000 nM
38 | C=CCn1c(=O)c2cnc(Nc3ccc(N4CC[C@H](N(C)C)C4)c(C)c3)nc2n1-c1ccc(=O)n(C(C)C)n1 [Compound 93] | ≤ 30 nM | ≤ 1000 nM
39 | C=CCn1c(=O)c2cnc(Nc3ccc(N4CC[C@H](N(C)C)C4)c(OC)c3)nc2n1-c1ccc(=O)n(C(C)C)n1 [Compound 94] | ≤ 30 nM | ≤ 1000 nM
40 | C=CCn1c(=O)c2cnc(Nc3ccc(N4CC[C@@H](N(C)C)C4)cc3)nc2n1-c1ccc(=O)n(C(C)C)n1 [Compound 95] | ≤ 30 nM | ≤ 1000 nM
41 | C=CCn1c(=O)c2cnc(Nc3ccc(N4CC[C@@H](N(C)C)C4)c(C)c3)nc2n1-c1ccc(=O)n(C(C)C)n1 [Compound 96] | ≤ 30 nM | ≤ 1000 nM
42 | C=CCn1c(=O)c2cnc(Nc3ccc(N4CC[C@@H](N(C)C)C4)c(OC)c3)nc2n1-c1ccc(=O)n(C(C)C)n1 [Compound 97] | ≤ 30 nM | ≤ 1000 nM
43 | C=CCn1c(=O)c2cnc(Nc3ccc(N4CCC(N(C)C)CC4)cc3)nc2n1-c1ccc(=O)n(C(C)C)n1 [Compound 98] | ≤ 30 nM | ≤ 1000 nM
44 | C=CCn1c(=O)c2cnc(Nc3ccc(N4CCC(N(C)C)CC4)c(C)c3)nc2n1-c1ccc(=O)n(C(C)C)n1 [Compound 99] | ≤ 30 nM | ≤ 1000 nM
45 | C=CCn1c(=O)c2cnc(Nc3ccc(N4CCC(N(C)C)CC4)c(OC)c3)nc2n1-c1ccc(=O)n(C(C)C)n1 [Compound 100] | ≤ 30 nM | ≤ 1000 nM
46 | C=CCn1c(=O)c2cnc(Nc3ccc(N4CCC(N)CC4)cc3)nc2n1-c1ccc(=O)n(C(C)C)n1 [Compound 101] | ≤ 30 nM | 1000 to 3000 nM
47 | C=CCn1c(=O)c2cnc(Nc3ccc(N4CCC(N)CC4)c(C)c3)nc2n1-c1ccc(=O)n(C(C)C)n1 [Compound 102] | ≤ 30 nM | ≤ 1000 nM
48 | C=CCn1c(=O)c2cnc(Nc3ccc(N4CCC(N)CC4)c(OC)c3)nc2n1-c1ccc(=O)n(C(C)C)n1 [Compound 103] | ≤ 30 nM | ≤ 1000 nM
49 | C=CCn1c(=O)c2cnc(Nc3ccc(N4CCC(NC)CC4)cc3)nc2n1-c1ccc(=O)n(C(C)C)n1 [Compound 104] | ≤ 30 nM | ≤ 1000 nM
50 | C=CCn1c(=O)c2cnc(Nc3ccc(N4CCC(NC)CC4)c(C)c3)nc2n1-c1ccc(=O)n(C(C)C)n1 [Compound 105] | ≤ 30 nM | ≤ 1000 nM
51 | C=CCn1c(=O)c2cnc(Nc3ccc(N4CCC(NC)CC4)c(OC)c3)nc2n1-c1ccc(=O)n(C(C)C)n1 [Compound 106] | ≤ 30 nM | ≤ 1000 nM
52 | C=CCn1c(=O)c2cnc(Nc3ccc(N4CCC(C)(N)CC4)cc3)nc2n1-c1ccc(=O)n(C(C)C)n1 [Compound 107] | ≤ 30 nM | ≤ 1000 nM

Reference: patent US12522607B2, “Substituted pyrazolo[3,4-d]pyrimidines as wee-1 inhibitors” (WIGEN BIOMEDICINE TECHNOLOGY (SHANGHAI) CO., LTD., priority 2020, dated 2026)
